Results from ChEMBL document CHEMBL2384993, “Multidimensional optimization of promising antitumor xanthone derivatives” (Bioorg Med Chem, 2013).
Values after ≈ are worked out from the molar mass of the structure shown.

Experiments:
[1] = Thermodynamic solubility of the compound after 24 hrs at pH 7.4 by spectrophotometric analysis; assay type: physicochemical; conditions: buffer, read-out: Therm_solubility
[2] = Micelles-buffer partition coefficient, log K of the compound after 30 mins at pH 7.4 by UV-vis spectrophotometric analysis; assay type: physicochemical; conditions: pH 7.4, 0.5 h
[3] = Liposomes-buffer partition coefficient, log K of the compound after 30 mins at pH 7.4 by UV-vis spectrophotometric analysis; assay type: physicochemical; conditions: artificial membrane, pH 7.4, 0.5 h
HL-60 [4] = experiment: Growth inhibition of human HL60 cells after 48 hrs by sulforhodamine B assay; assay type: functional; conditions: HL-60, 48 h
[5] = Growth inhibition of human A375-C5 cells after 48 hrs by sulforhodamine B assay; assay type: functional; conditions: A375-C5, 48 h
NCI-H460 = experiment: Growth inhibition of human NCI-H460 cells after 48 hrs by sulforhodamine B assay; assay type: functional; conditions: NCI-H460, 48 h
MCF7 = experiment: Growth inhibition of human MCF7 cells after 48 hrs by sulforhodamine B assay; assay type: functional; conditions: MCF7, 48 h
HL-60 [6] = experiment: Cytotoxicity against human HL60 cells after 24 to 72 hrs by trypan blue exclusion assay; assay type: functional, cell-based

Row | SMILES | solubility thermodynamic at 24 h [1] [µM] | log K [2] | log K [3] | GI50 (HL-60 [4]) [µM] | GI50 [5] [µM] | GI50 (NCI-H460) [µM] | GI50 (MCF7) [µM] | IC50 (HL-60 [6]) [µM]
1 | Cc1ccc2oc3c(O)c4c(cc3c(=O)c2c1)CCC(C)(C)O4 | < 0.1 | 3.92 | 3.86 | 12.5 | 17.6 | 48.1 | > 150 | 
2 | COc1c2c(cc3c(=O)c4ccccc4oc13)CCC(C)(C)O2 |  | 3.59 | 3.6 | 8.8 | > 150 | > 150 | > 150 | 
3 | COc1c2c(cc3c(=O)c4cc(C)ccc4oc13)CCC(C)(C)O2 |  | 4.01 | 4.02 | 5.14 | 29.7 | 30.9 | 31.8 | 
4 | CCN(CC)c1ccc2c(=O)c3cc4c(c(OC)c3oc2c1)C=CC(C)(C)O4 |  |  |  | 9.2 | 21.9 | 26.8 | 34.3 | 
5 | COc1cc2oc3c(OC)c4c(cc3c(=O)c2cc1OC)OC(C)(C)CC4 |  | 3.83 | 3.88 |  | > 75 | > 75 | > 75 | 
6 | COc1c2c(cc3c(=O)c4cc(Cl)ccc4oc13)OC(C)(C)C=C2 |  | 4.34 |  | 14.1 | > 150 | > 150 | > 150 | 
7 | COc1cccc2c1C(=O)c1c(O)c3c(c(O)c1C2=O)C[C@@](O)(C(=O)CO)C[C@@H]3O[C@H]1C[C@H](N)[C@H](O)[C@H](C)O1 [DOXORUBICIN] |  |  |  | 0.028 | 0.145 | 0.0641 | 0.0654 | 
8 | COc1c2c(cc3c(=O)c4ccc(O)cc4oc13)OC(C)(C)C=C2 |  | 3.9 |  | 18.8 | 27.1 | 34.9 | 36.9 | 
9 | COc1cc2oc3c(OC)c4c(cc3c(=O)c2cc1OC)CCC(C)(C)O4 |  | 3.88 |  | 72.3 | > 100 | > 100 | > 100 | 
10 | CCN(CC)c1ccc2c(=O)c3cc4c(c(OC)c3oc2c1)CCC(C)(C)O4 |  | 4.7 | 4.62 | 14.4 | 19.6 | 13.7 | 14.5 | 
11 | COc1ccc2oc3c(OC)c4c(cc3c(=O)c2c1)OC(C)(C)C=C4 |  | 4.21 |  |  | > 150 | > 150 | > 150 | 
12 | COc1c2c(cc3c(=O)c4ccc(O)cc4oc13)CCC(C)(C)O2 |  | 3.49 | 3.43 | 8.3 | > 150 | > 150 | > 150 | 
13 | COc1ccc2oc3c(O)c4c(cc3c(=O)c2c1)CCC(C)(C)O4 | < 0.1 | 3.35 | 3.25 | 23.9 | > 150 | > 150 | > 150 | 
14 | COc1cccc2c(=O)c3cc4c(c(O)c3oc12)OC(C)(C)CC4 | 0.23 (≈ 0.0751 µg/mL) | 3.58 | 3.53 | 27.3 | 68 | 41.1 |  | 
15 | CC1(C)CCc2cc3c(=O)c4cc(Cl)ccc4oc3c(O)c2O1 | < 0.1 | 4.39 |  | 9 | > 150 | > 150 | > 150 | 
16 | COc1c2c(cc3c(=O)c4cc(C)ccc4oc13)OC(C)(C)C=C2 |  | 4.29 | 4.32 | > 50 | > 50 | > 50 | > 50 | 
17 | CC1(C)CCc2cc3c(=O)c4ccc(O)cc4oc3c(O)c2O1 | 0.62 (≈ 0.194 µg/mL) | 3.76 | 3.32 | 57 | 40.7 | 59.1 | 82.5 | 
18 | COc1c2c(cc3c(=O)c4cc(Cl)ccc4oc13)OC(C)(C)CC2 |  | 4.41 | 4.48 | 48.4 | > 75 | > 75 | > 75 | 
19 | CC1(C)CCc2cc3c(=O)c4ccccc4oc3c(O)c2O1 [DIHYDRO-12-HYDROXY-2,2-DIMETHYL-2H,6H-PYRANO[3,2-B]XANTHEN-6-ONE] | 0.4 (≈ 0.119 µg/mL) | 3.28 | 3.35 | 23.4 | 28.9 | 40.3 | 39.7 | 6
